Data on 16 compounds can be found in patent US20050245563A1 (Millennium Pharmaceuticals, Inc., priority 2003, published 2005).

Broadly, the pIC50 is the IC50 on a negative log10 scale, so that one unit is a factor of ten. Low values mean a large IC50, high ones a small IC50.

The target of this experiment is T1, human Chk1 (GST-Chk1) (Homo sapiens, UniProt O14757).
T1 construct: made in house; host or cells: insect cells (baculovirus, Bac-to-Bac)
T1 sequence (O14757 1-476): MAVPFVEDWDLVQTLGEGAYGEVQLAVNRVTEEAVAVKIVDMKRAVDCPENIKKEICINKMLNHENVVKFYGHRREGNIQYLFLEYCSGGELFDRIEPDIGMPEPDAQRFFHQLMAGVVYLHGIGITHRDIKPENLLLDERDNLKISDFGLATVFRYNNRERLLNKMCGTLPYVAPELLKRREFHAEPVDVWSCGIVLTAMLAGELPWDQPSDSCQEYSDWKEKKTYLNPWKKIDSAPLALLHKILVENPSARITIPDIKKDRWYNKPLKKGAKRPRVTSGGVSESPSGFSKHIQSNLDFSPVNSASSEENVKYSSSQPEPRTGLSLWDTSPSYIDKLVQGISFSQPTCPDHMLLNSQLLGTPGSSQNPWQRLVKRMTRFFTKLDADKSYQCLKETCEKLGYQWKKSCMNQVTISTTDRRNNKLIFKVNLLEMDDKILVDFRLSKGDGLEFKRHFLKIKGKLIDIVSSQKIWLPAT
Put plainly: Chk1 FlashPlate kinase assay. Particulars: 8.7 nM GST-Chk1, 1 uM ATP, 33P incorporation into peptide substrate. The format is biochemical. The method in brief: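 GST-tagged human Chk1 (8.7 nM), baculovirus-expressed, with 3 uM biotinylated peptide, 1 uM ATP plus ^33P-γ-ATP, in MES/EGTA pH 8.0, DTT, Tween 20, 4% DMSO; 30 min at room temperature. EDTA-stopped; phosphopeptide captured on streptavidin FlashPlates and ^33P counted by scintillation.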

Molecules are shown by their SMILES. pIC50: −log10 of the molar value. Some results are limits rather than exact numbers.

`Cc1n[nH]c2c1c(=O)n(CCNC(=O)C(Cc1ccccc1)NC(=O)OC(C)(C)C)c1ccccc21` (stereo not shown) [Example 97, {1-[2-(3-Methyl-4-oxo-1,4-dihydro-pyrazolo[4,3-c]quinolin-5-yl)-ethylcarbamoyl]-2-phenyl-ethyl}-carbamic acid tert-butyl ester] had a pIC50 of 4.70 to 6.00.

As for `Cc1n[nH]c2c1c(=O)n(CC1CCN(C(=O)OC(C)(C)C)CC1)c1ccc(Br)cc21` [Example 37, 4-(8-Bromo-3-methyl-4-oxo-1,4-dihydro-pyrazolo[4,3-c]quinolin-5-ylmethyl)-piperidine-1-carboxylic acid tert-butyl ester], the pIC50 was 4.70 to 6.00.

Compound `Cc1[nH]nc2c1c(=O)n(CCNC(=O)N1CCOCC1)c1ccccc21` [Example 112, Morpholine-4-carboxylic acid [2-(3-methyl-4-oxo-2,4-dihydro-pyrazolo[4,3-c]quinolin-5-yl)-ethyl]-amide] gave a pIC50 of 4.70 to 6.00.

`Cc1[nH]nc2c1c(=O)n(CCCNC(=O)c1ccc(C(C)(C)C)cc1)c1ccccc21` [Example 85, 4-tert-Butyl-N-[3-(3-methyl-4-oxo-2,4-dihydro-pyrazolo[4,3-c]quinolin-5-yl)-propyl]-benzamide] gave a pIC50 above 6.00.

With `Cc1[nH]nc2c1c(=O)n(CCCC#N)c1ccc(Br)cc21` [Example 20, 4-(8-Bromo-3-methyl-4-oxo-2,4-dihydro-pyrazolo[4,3-c]quinolin-5-yl)-butyronitrile], the pIC50 is above 6.00.

`Cc1[nH]nc2c1c(=O)n(CCCN(C)C)c1ccc(Cl)cc21` [Example 16, 8-Chloro-5-(3-dimethylamino-propyl)-3-methyl-2,5-dihydro-pyrazolo[4,3-c]quinolin-4-one] showed a pIC50 above 6.00.

Regarding `Cc1[nH]nc2c1c(=O)n(CCCN)c1ccc(N3CCN(C)CC3)cc21` [Example 121, 5-(3-Amino-propyl)-3-methyl-8-(4-methyl-piperazin-1-yl)-2,5-dihydro-pyrazolo[4,3-c]quinolin-4-one], the pIC50 was above 6.00.

Take `Cc1n[nH]c2c1c(=O)n(CCCN1CCc3ccccc3C1)c1ccccc21` [Example 9, 5-[3-(3,4-Dihydro-1H-isoquinolin-2-yl)-propyl]-3-methyl-1,5-dihydro-pyrazolo[4,3-c]quinolin-4-one]: the pIC50 is above 6.00.

Compound `Cc1[nH]nc2c1c(=O)n(CCCNC(=O)C(Cc1ccc(OC(C)(C)C)cc1)NC(=O)OC(C)(C)C)c1ccccc21` (stereo not shown) [Example 98, {2-(4-tert-Butoxy-phenyl)-1-[3-(3-methyl-4-oxo-2,4-dihydro-pyrazolo[4,3-c]quinolin-5-yl)-propylcarbamoyl]-ethyl}-carbamic acid tert-butyl ester] showed a pIC50 of 4.70 to 6.00.

`Cc1n[nH]c2c1c(=O)n(CC(C)CN)c1ccc(Br)cc21` (stereo not shown) [Example 42, 5-(3-Amino-2-methyl-propyl)-8-bromo-3-methyl-1,5-dihydro-pyrazolo[4,3-c]quinolin-4-one] showed a pIC50 above 6.00.

Take `Cc1[nH]nc2c1c(=O)n(CCCNC(=O)CNC(=O)OC(C)(C)C)c1ccccc21` [Example 102, {[3-(3-Methyl-4-oxo-2,4-dihydro-pyrazolo[4,3-c]quinolin-5-yl)-propylcarbamoyl]-methyl}-carbamic acid tert-butyl ester]: the pIC50 is 4.70 to 6.00.

The compound `Cc1n[nH]c2c1c(=O)n(CCCNC(=O)OC(C)(C)C)c1ccccc21` [Example 6, [3-(3-Methyl-4-oxo-1,4-dihydro-pyrazolo[4,3-c]quinolin-5-yl)-propyl]-carbamic acid tert-butyl ester] had a pIC50 above 6.00.

Compound `Cc1n[nH]c2c1c(=O)n(C[C@@H](C)CN)c1ccc(Br)cc21` [Example 47, 5-(3-Amino-2-S-methyl-propyl)-8-bromo-3-methyl-1,5-dihydro-pyrazolo[4,3-c]quinolin-4-one] gave a negative-log IC50 (pIC50) above 6.00.

For the compound `Cc1n[nH]c2c1c(=O)n(CCCNCc1ccccc1)c1ccccc21` [Example 5, 5-(3-Benzylamino-propyl)-3-methyl-1,5-dihydro-pyrazolo[4,3-c]quinolin-4-one], the pIC50 is above 6.00.

In the case of `Cc1[nH]nc2c1c(=O)n(CCCNC(=O)c1ccccc1Cl)c1ccccc21` [Example 84, 2-Chloro-N-[3-(3-methyl-4-oxo-2,4-dihydro-pyrazolo[4,3-c]quinolin-5-yl)-propyl]-benzamide], the pIC50 is above 6.00.

In turn, `Cc1n[nH]c2c1c(=O)n(CCCCNC(=O)OC(C)(C)C)c1ccc(Br)cc21` [Example 29, [4-(8-Bromo-3-methyl-4-oxo-1,4-dihydro-pyrazolo[4,3-c]quinolin-5-yl)-butyl]-carbamic acid tert-butyl ester] showed a pIC50 above 6.00.
